Here are results for one compound from patent publication US20250073210A1, “Use of Ergothioneine for Enhancing Glutathione Level” (priority 2022, published 2025).

The test system of experiment [1] is body stores of glutathione. As to conditions: oral 250 or 1000 mg/day, cited from earlier work.
The test system of another experiment is total GSH. Kind of experiment: Example 3: oral L-ergothioneine 5, 15, 30 mg/day on plasma glutathione in healthy humans. As to conditions: Example 3, 1400 mg orally once weekly for 4 weeks, single subject, baseline 653 μM. It is filed as in vivo, human. An excerpt: A Baseline will be established looking at Total and Percent Reduced Glutathione. These same values will be measured at the end of the four weeks. Subjects will be contacted once a week while in the study for an assessment of compliance with intervention.
Study Population: Male and female subjects 25-75 years of age Number of Subjects: 5, assigned as follows: 1 subject will receive the GSH administered orally once weekly for 4 weeks; 1 subject will receive S-acetyl-glutathione supplemented orally once daily for 4 weeks; 3 subjects will receive 5, 15, 30 mg L-ergothioneine supplemented orally once daily for 4 weeks, respectively.
• 1. Individuals must be between 25-70 years of age with no known medical conditions that, in the investigator's opinion, may interfere with study participation. • 2. Subjects must present with mild to moderate signs oxidative stress or inflammation. • 3. Willingness to cooperate and participate by following Study requirements. • 4. Individuals must sign informed consent, photo release consent and confidentiality agreement.
• 1. […] Individuals currently taking certain medications or any dietary supplements, which in the opinion of the investigator might interfere with the study. This would include but not be limited to routine high dosage use of anti-inflammatory drugs (aspirin, ibuprofen, corticosteroids) immunosuppressive drugs or antihistamine medications), and insulin, anti-hypertensive drugs, and especially antioxidants. • 3. Individuals with uncontrolled metabolic diseases such as diabetes (Type I and II), hypertension, hyperthyroidism or hypothyroidism, severe chronic asthma, immunological disorders such as HIV positive, AIDS and systemic lupus erythematosus or mastectomy for cancer involving removal of lymph nodes. • 4. Women known to be pregnant, nursing or planning to become pregnant. • 5. Individuals participating in other clinical studies evaluating antioxidants or anti-inflammatory interventions.

Turning to `N[C@@H](CCC(=O)N[C@@H](CS)C(=O)NCC(=O)O)C(=O)O` [glutathione], in experiment [1] (at six months), the “Natural killer cell cytotoxicity” value is “favorable increases” and the “Oxidized (GSSG) to reduced (GSH) glutathione ratio in whole blood” value is on record as “improvement”. Also, in experiment [1] (six months, 54 non-smoking adults), the “Body stores of glutathione” value is listed as “significant increases”. Besides, in the experiment with total GSH, the “% change from baseline in total GSH” value was −23%.
